The target in one data set is hCA I (Homo sapiens, UniProt P00915). The data set is described as follows: stopped flow CO2 hydrase assay, hCA I.
A further data set addresses hCA II (Homo sapiens, UniProt P00918). The data set is described as follows: stopped flow CO2 hydrase assay, hCA II.
For the next data set, the target named is hCA XII (Homo sapiens, UniProt O43570). The data set is described as follows: stopped flow CO2 hydrase assay, hCA XII.
A further data set concerns the target hCA IX (Homo sapiens, UniProt Q16790). The data set is described as follows: stopped flow CO2 hydrase assay, hCA IX.

We go through 13 molecules from publication PMC8625619, “Carbonic Anhydrase Inhibition with Sulfonamides Incorporating Pyrazole- and Pyridazinecarboxamide Moieties Provides Examples of Isoform-Selective Inhibitors” (Molecules, 2021).

hCA XII, sequence (O43570 25-354): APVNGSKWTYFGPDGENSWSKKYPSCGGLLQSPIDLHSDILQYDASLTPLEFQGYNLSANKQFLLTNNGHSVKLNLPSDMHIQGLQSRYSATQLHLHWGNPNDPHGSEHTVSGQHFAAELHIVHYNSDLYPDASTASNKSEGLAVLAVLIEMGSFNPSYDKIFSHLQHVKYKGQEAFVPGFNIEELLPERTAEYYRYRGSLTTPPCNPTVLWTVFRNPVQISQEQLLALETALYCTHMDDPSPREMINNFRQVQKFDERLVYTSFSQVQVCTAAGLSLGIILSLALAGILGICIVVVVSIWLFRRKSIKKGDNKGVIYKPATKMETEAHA
hCA I, sequence (P00915 whole entry): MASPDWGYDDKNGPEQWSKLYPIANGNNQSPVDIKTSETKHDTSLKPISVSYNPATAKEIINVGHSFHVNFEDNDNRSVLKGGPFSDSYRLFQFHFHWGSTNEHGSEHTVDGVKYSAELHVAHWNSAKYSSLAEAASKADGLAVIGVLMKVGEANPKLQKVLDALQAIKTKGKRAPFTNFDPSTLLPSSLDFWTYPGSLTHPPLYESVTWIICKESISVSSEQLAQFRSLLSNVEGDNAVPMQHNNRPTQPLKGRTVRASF
Procedure for hCA II: (§1) An Applied Photophysics stopped-flow instrument was used for assaying the CA-catalyzed CO2 hydration activity [50]. […] However, the background activity from the uncatalyzed reaction was always subtracted when IC50 values were obtained by using the data analysis software for the stopped-flow instrument. […] The uncatalyzed rates were determined in the same manner and subtracted from the total observed rates. Stock solutions of the inhibitor (0.1 mM) were prepared in distilled–deionized water, and dilutions up to 0.01 nM were performed thereafter with the assay buffer. Inhibitor and enzyme solutions were preincubated together for 15 min at room temperature prior to the assay, to allow for the formation of the E–I complex. The inhibition constants were obtained by nonlinear least-squares methods using PRISM 3 and the Cheng–Prusoff equation as reported earlier and represented the mean from at least three different determinations. All CA isoforms were recombinant proteins obtained in-house, as reported earlier [2, 51, 52].
Procedure for hCA IX: as §1
Procedure for hCA XII: as §1

As usually defined, the Ki is a dissociation constant, usually derived from enzyme kinetics or from competition with a known ligand. Consider `NS(=O)(=O)c1ccc(NC(=O)c2cc(-c3ccccc3O)[nH]n2)cc1` [4a, N-[4-(Aminosulfonyl)phenyl]-3-(2-hydroxyphenyl)-1H-pyrazole-5-carboxamide], for which the Ki at hCA I was found to be 3820 nM; on hCA II, 867 nM; on hCA XII it was 271 nM; on hCA IX it was 450 nM.
In the case of `Cc1ccc(-c2cc(C(=O)Nc3ccc(S(N)(=O)=O)cc3)[nH]n2)c(O)c1` [4b, N-[4-(Aminosulfonyl)phenyl]-3-(2-hydroxy-4-methylphenyl)-1H-pyrazole-5-carboxamide], the Ki was 93.3 nM at hCA I, 309 nM on hCA II, 372 nM at hCA XII and 78.9 nM at hCA IX.
The term melting point denotes the temperature, or range, at which the solid turns liquid. Consider `Cc1ccc(O)c(-c2cc(C(=O)Nc3ccc(S(N)(=O)=O)cc3)[nH]n2)c1` [4c, N-[4-(Aminosulfonyl)phenyl]-3-(2-hydroxy-5-methylphenyl)-1H-pyrazole-5-carboxamide], for which the melting point fell in the range of 297 to 299 °C. On hCA I, this molecule displayed a Ki of 221 nM. For the same molecule, on hCA II, the Ki came out at 16.1 nM. For the same molecule, on hCA XII, the Ki worked out at 250 nM. Moreover, affinity on hCA IX was put at a Ki of 8.5 nM. Besides, the “selectivity index on hCA IX compared to hCA I” value at hCA IX (hCA IX compared to hCA I) is 26. Moreover, the “selectivity index on hCA IX compared to hCA II” value at hCA IX (hCA IX compared to hCA II) is listed as “two times”.
The molecule `NS(=O)(=O)c1ccc(NC(=O)c2cc(-c3cc(Cl)ccc3O)n[nH]2)cc1` [4f, N-[4-(Aminosulfonyl)phenyl]-3-(5-chloro-2-hydroxyphenyl)-1H-pyrazole-5-carboxamide] came in with a melting point of 302 to 304 °C. On hCA I, this molecule returned a Ki of 155 nM. This molecule also yielded a Ki on hCA II of 37.2 nM. On hCA XII, this molecule registered a Ki of 90.8 nM. This molecule also displayed a Ki at hCA IX of 34.2 nM.
Turning to `NS(=O)(=O)c1ccc(CCNC(=O)c2cc(-c3ccccc3O)n[nH]2)cc1` [5a, N-{2-[4-(Aminosulfonyl)phenyl]ethyl}-3-(2-hydroxyphenyl)-1H-pyrazole-5-carboxamide], the inhibitory constant (Ki) on hCA I turned out to be 88.1 nM.
In turn, `Cc1ccc(-c2cc(C(=O)NCCc3ccc(S(N)(=O)=O)cc3)[nH]n2)c(O)c1` [5b, N-{2-[4-(Aminosulfonyl)phenyl]ethyl}-3-(2-hydroxy-4-methylphenyl)-1H-pyrazole-5-carboxamide] yielded a melting point of 254 to 255 °C. At hCA I, this molecule yielded a Ki of 345 nM. Besides, the Ki on hCA II was found to be 16.2 nM. In addition, the affinity on hCA XII, expressed as Ki, was 330 nM. At hCA IX, this molecule displayed a Ki of 16.1 nM.
Molecule `Cc1cc(O)c(-c2cc(C(=O)NCCc3ccc(S(N)(=O)=O)cc3)[nH]n2)cc1C` [5d, N-{2-[4-(Aminosulfonyl)phenyl]ethyl}-3-(2-hydroxy-4,5-dimethylphenyl)-1H-pyrazole-5-carboxamide] displayed a melting point of 256 to 258 °C. Moreover, the Ki on hCA I turned out to be 218 nM. The Ki at hCA II came out at 25.2 nM. In addition, the Ki on hCA XII was found to be 61.3 nM. Further, the Ki at hCA IX came to 63.5 nM.
As to `Cc1cc(C)c(O)c(-c2cc(C(=O)NCCc3ccc(S(N)(=O)=O)cc3)[nH]n2)c1` [5e, N-{2-[4-(Aminosulfonyl)phenyl]ethyl}-3-(2-hydroxy-3,5-dimethylphenyl)-1H-pyrazole-5-carboxamide], the Ki is 71.4 nM at hCA I, 16.2 nM on hCA II, 191 nM at hCA XII and 52.3 nM on hCA IX.
On to `NS(=O)(=O)c1ccc(CCNC(=O)c2cc(-c3cc(Cl)ccc3O)n[nH]2)cc1` [5f, N-{2-[4-(Aminosulfonyl)phenyl]ethyl}-3-(5-chloro-2-hydroxyphenyl)-1H-pyrazole-5-carboxamide], for which the inhibition constant Ki on hCA I amounted to 2150 nM; at hCA II it was 9.1 nM; at hCA XII, 77.3 nM; on hCA IX, 79.4 nM. Also, the “selectivity index (SI) for hCA II towards hCA I” value at hCA II (hCA II compared to hCA I) was 236. Besides, the “selectivity index (SI) for hCA II compared to hCA IX” value at hCA II (hCA II compared to hCA IX) stood at 8.7.
As to `NS(=O)(=O)c1ccc(NC(=O)c2nn(-c3ccc(F)cc3)ccc2=O)cc1` [10b, N-[4-(Aminosulfonyl)phenyl]-1-(4-fluorophenyl)-4-oxo-1,4-dihydropyridazine-3-carboxamide], the melting point is 313 to 315 °C. The same molecule came in with a Ki at hCA I of 481 nM. The same molecule had a Ki at hCA II of 72.5 nM. Also, affinity at hCA XII was put at a Ki of 94.8 nM. The same molecule yielded an inhibitory constant (Ki) at hCA IX of 131 nM.
`NS(=O)(=O)c1ccc(NC(=O)c2nn(-c3cccc(Cl)c3)ccc2=O)cc1` [10c, N-[4-(Aminosulfonyl)phenyl]-1-(3-chlorophenyl)-4-oxo-1,4-dihydropyridazine-3-carboxamide] came in with a melting point of 297 to 299 °C. The molecule also registered a Ki on hCA I of 840 nM. The same molecule returned a Ki at hCA II of 76.3 nM. In addition, at hCA XII, the Ki turned out to be 433 nM. The same molecule displayed a Ki at hCA IX of 569 nM.
In the same order, the values of `NS(=O)(=O)c1ccc(NC(=O)c2nn(-c3ccc(Cl)cc3)ccc2=O)cc1` [10d, N-[4-(Aminosulfonyl)phenyl]-1-(4-chlorophenyl)-4-oxo-1,4-dihydropyridazine-3-carboxamide] are 310 to 312 °C, 6.2 nM, 8 nM, 65.7 nM and 165 nM.
With `COc1cc2c(cc1OC)-c1c(c(C(=O)Nc3ccc(S(N)(=O)=O)cc3)nn1C)C2` [compound 15, N-[4-(Aminosulfonyl)phenyl]-6,7-dimethoxy-1-methyl-1,4-dihydroindeno[1,2-c]pyrazole-3-carboxamide], the Ki was 726 nM on hCA I and 6.1 nM on hCA IX.
